Laboratory results reported in PMC10460844, “Real‐Time Monitoring of Multitarget Antimicrobial Mechanisms of Peptoids Using Label‐Free Imaging with Optical Diffraction Tomography” (Advanced Science, 2023).
Converted amounts (≈) assume the structure as drawn. Read-outs that look alike come from different tables or passages of the source. Square brackets hold non-standard residues; d marks the D form. Peptide text beside a SMILES is read from it. Gly(N(CH2)2(3-indolyl)) = O=C(O)CNCCc1c[nH]c2ccccc12; Nspe = C[C@H](NCC(=O)O)c1ccccc1; Nlys = NCCCCNCC(=O)O

Legend:
[1] = tested on: E. coli ATCC 25922; experiment: NPN uptake assay (outer membrane); type: cell-based; conditions: E. coli ATCC 25922, 5 mM HEPES pH 7.2, 10 µM NPN, fluorescence
Method: 14. In vitro biological assays […]
The ability of peptoids to increase the permeability of the outer membrane of Gram-negative bacteria was determined by measuring the incorporation of the NPN fluorescent dye into the outer membrane of E. coli ATCC 25922. Bacterial cells were suspended to a final concentration of OD600 = 0.05 in 5 mM HEPES buffer, pH 7.2, containing 5 mM KCN. Then […]
200 μL NPN dye was added to wells of a 96 well plate to produce a final concentration of 10 μM, and the background fluorescence was recorded (λex = 350 nm, λem = 420 nm). Aliquots of peptoids were added to the well, and fluorescence was recorded as a function of time until there was no further increase in fluorescence. Increases of the permeability of the outer membrane after the addition of peptoids was reflected by increased fluorescence values as a result of NPN incorporation into the membrane. […]

[2] = tested on: E. coli ML-35 cells; experiment: ONPG hydrolysis assay (inner membrane); type: cell-based; conditions: 1.5 mM ONPG, 10 mM sodium phosphate pH 7.4, absorbance 405 nm
Method: The permeability of the inner membrane was determined using E. coli ML-35 cells […]
The intact bacterial inner membrane is non-permeable to o-nitrophenyl-β-D-galactopyranoside (OPNG), a chromogenic substrate of the β-galactosidase.
Following damage to the inner membrane, OPNG enters the cells and is metabolized by β-galactosidase creating a chromogenic […]. E. coli cells were washed in 10 mM sodium phosphate (pH 7.4) containing 100 mM NaCl and resuspended in the same buffer at a final concentration of OD600 = 0.5 containing 1.5 mM ONPG. The hydrolysis of ONPG and generation of o-nitrophenol over time were monitored as absorbance change at 405 nm following the addition of peptoids. […]

[3] = tested on: rat erythrocytes; experiment: Hemolysis assay; type: cell-based
In short: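 Washed Sprague-Dawley rat erythrocytes (10% suspension in PBS pH 7.4) mixed with peptoids (0–100 µM), 60 min at 37 °C; supernatant A540 expressed as % of 1% Triton X-100 lysis. HC10/HC50 are concentrations giving 10%/50% hemolysis; Hmax is hemolysis at 100 µM.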

[4] = tested on: S. typhimurium SL 1344; type: cell-based
[5] = tested on: E. coli ATCC 25922; type: cell-based, Escherichia coli
In short: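 Broth microdilution in cation-adjusted MHB2 containing 0.001% acetic acid and 0.02% BSA, inoculum ≈2–5 × 10^5 CFU mL^−1 from a 3–4 h secondary culture. Peptoids tested at six two-fold dilutions from 25 µM, in triplicate. MIC taken as the lowest concentration preventing visible turbidity.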

[6] = Analytical reversed-phase HPLC elution (hydrophobicity); type: physicochemical; conditions: Table 1; analytical RP-HPLC, SunFire C18 […] 250 mm, water/ACN + 0.1% TFA, 5% B 2 min then linear to 100% B over 30 min, 1 mL/min, UV 220 nm; used as measure of hydrophobicity
In short: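 Analytical reversed-phase HPLC on a C18 column (4.6 × 250 mm, 5 μm) at 1 mL/min, water/acetonitrile each with 0.1% TFA. Held at 5% B for 2 min, then linear to 100% B over 30 min and held 5 min, with UV detection at 220 nm; retention time (tR) serves as hydrophobicity measure.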

[7] = tested on: E. faecium KCTC 13225; type: cell-based
[8] = tested on: P. aeruginosa KCTC 1637; type: cell-based
[9] = Table S2, broth dilution, MHB2, 37 °C 24 h, max 25 µM, mean of triplicate
[10] = Table S3, counter-ion exchange series (TFA, HCl, AcOH salts), mean of triplicate

## C[C@@H](c1ccccc1)N(CC(N)=O)C(=O)CN(C(=O)CN(CCCCN)C(=O)CN(C(=O)CN(C(=O)CN(CCCCN)C(=O)CN(C(=O)CN(C(=O)CN(CCCCN)C(=O)CN(C(=O)CN(C(=O)CNCCCCN)[C@@H](C)c1ccccc1)[C@@H](C)c1ccccc1)[C@@H](C)c1ccccc1)[C@@H](C)c1ccccc1)[C@@H](C)c1ccccc1)[C@@H](C)c1ccccc1)[C@@H](C)c1ccccc1 [peptoid 1, reference compound] (H-[Nlys][Nspe][Nspe][Nlys][Nspe][Nspe][Nlys][Nspe][Nspe][Nlys][Nspe][Nspe]-NH2)
[1]
  outer membrane disruption (NPN uptake): strongly disrupted
[2]
  inner membrane disruption (ONPG hydrolysis): strongly disrupted
[3]; Table S2, 10% hemolysis in rat erythrocytes, PBS pH 7.4, 37 °C 60 min, mean of triplicate
  HC10: 8.3 µM
[3]; Table S2, 50% hemolysis in rat erythrocytes, PBS pH 7.4, 37 °C 60 min, mean of triplicate
  HC50: 22.9 µM
[3]; Table S3, counter-ion exchange series, 10% hemolysis in rat erythrocytes, mean of triplicate
  HC10: 15.9 µM
[3]; Table S3, counter-ion exchange series, 50% hemolysis in rat erythrocytes, mean of triplicate
  HC50: 49.0 µM
[3]; Table S3, counter-ion exchange series, hemolysis at 100 µM
  Hmax (100 µM): 72.1±2.1%
[3]; percentage of hemolysis at the highest concentration tested (100 µM), rat erythrocytes
  H max (100 µM): 112.3 ± 0.7%
[4]; gram-negative pathogenic strain, mean of triplicates
  MIC S. typhimurium SL 1344: 25 µM (≈ 45.5 µg/mL)
[5]; [9]
  MIC E. coli ATCC25922: 6.3 µM (≈ 11.5 µg/mL)
[5]; [10]
  MIC E. coli ATCC25922: 6.3 µM
[6]
  HPLC elution (%ACN): 54.5 %ACN
[7]; gram-positive pathogenic strain, mean of triplicates
  MIC E. faecium KCTC 13225: <0.8 µM
[8]; gram-negative pathogenic strain, maintained in refined LB media, mean of triplicates
  MIC P. aeruginosa KCTC 1637: 6.3 µM (≈ 11.5 µg/mL)

## C[C@@H](c1ccccc1)N(CC(=O)N(CCCCN)CC(=O)N(CC(=O)N(CC(=O)N(CCCCN)CC(=O)N(CC(=O)N(CC(=O)N(CCCCN)CC(=O)N(CCc1c[nH]c2ccccc12)CC(=O)N(CCc1c[nH]c2ccccc12)CC(N)=O)[C@@H](C)c1ccccc1)[C@@H](C)c1ccccc1)[C@@H](C)c1ccccc1)[C@@H](C)c1ccccc1)C(=O)CN(C(=O)CNCCCCN)[C@@H](C)c1ccccc1 [peptoid 11] (H-[Nlys][Nspe][Nspe][Nlys][Nspe][Nspe][Nlys][Nspe][Nspe][Nlys][Gly(N(CH2)2(3-indolyl))][Gly(N(CH2)2(3-indolyl))]-NH2)
[1]
  outer membrane disruption (NPN uptake): strongly disrupted
[2]
  inner membrane disruption (ONPG hydrolysis): strongly disrupted
[3]
  H max (100 µM): 103.4 ± 3.2%
  Hmax (100 µM): 111.9±2.7%
[3]; pH 7.4
  HC10: 8.3 µM
  HC50: 22.2 µM
[3]; red cells of rat
  HC10: 6.9 µM
  HC50: 27.5 µM
[4]; SL 1344
  MIC S. typhimurium SL 1344: 25 µM (≈ 47.4 µg/mL)
[5]; ATCC 25922
  MIC E. coli ATCC25922: 3.1 µM (≈ 5.88 µg/mL)
[5]; [9]
  MIC E. coli ATCC25922: 6.3 µM (≈ 12 µg/mL)
[6]
  HPLC elution (%ACN): 54.0 %ACN
[7]; KCTC 13225
  MIC E. faecium KCTC 13225: <0.8 µM
[8]; KCTC 1637
  MIC P. aeruginosa KCTC 1637: 3.1 µM (≈ 5.88 µg/mL)

## C[C@@H](c1ccccc1)N(CC(=O)N(CCCCN)CC(=O)N(CCc1c[nH]c2ccccc12)CC(=O)N(CCc1c[nH]c2ccccc12)CC(N)=O)C(=O)CN(CCCCN)C(=O)CN(CCCCN)C(=O)CN(C(=O)CN(C(=O)CN(CCCCN)C(=O)CN(C(=O)CN(C(=O)CNCCCCN)[C@@H](C)c1ccccc1)[C@@H](C)c1ccccc1)[C@@H](C)c1ccccc1)[C@@H](C)c1ccccc1 [peptoid 29] (H-[Nlys][Nspe][Nspe][Nlys][Nspe][Nspe][Nlys][Nlys][Nspe][Nlys][Gly(N(CH2)2(3-indolyl))][Gly(N(CH2)2(3-indolyl))]-NH2)
[1]
  outer membrane disruption (NPN uptake): somewhat lower
[2]
  inner membrane disruption (ONPG hydrolysis): lower than that seen with more hydrophobic peptoids
[3]
  H max (100 µM): 9.8 ± 1.8%
  HC50: > 100 µM
[3]; pH 7.4
  HC10: > 100 µM
  HC50: > 100 µM
[3]; red cells of rat
  HC10: 88.6 µM
[4]; SL 1344
  MIC S. typhimurium SL 1344: 6.3 µM (≈ 11.7 µg/mL)
[5]; [9]
  MIC E. coli ATCC25922: 6.3 µM (≈ 11.7 µg/mL)
[5]; [10]
  MIC E. coli ATCC25922: 6.3 µM
[5]; broth dilution, MHB2 with 0.001% acetic acid and 0.02% BSA, 2–5 × 10^5 CFU/mL, 37 °C 24 h, max 25 µM, mean of triplicates
  MIC E. coli ATCC25922: 6.3 µM (≈ 11.7 µg/mL)
[6]
  HPLC elution (%ACN): 48.6 %ACN
[7]; KCTC 13225
  MIC E. faecium KCTC 13225: 1.6 µM (≈ 2.98 µg/mL)
[8]; KCTC 1637
  MIC P. aeruginosa KCTC 1637: 3.1 µM (≈ 5.78 µg/mL)
